Source: the supplement of paper PMC10307832

Assays:
Assay in all cases: relative viability (nuclei count vs DMSO), 5 days (fraction); higher = more cells survive
[1] = compound: NCC(=O)Nc1ccc(-n2nc(C(F)(F)F)cc2-c2ccc3c(ccc4ccccc43)c2)cc1 + C[C@]1(O)C[C@@H](c2nc(-c3ccc4ccc(-c5ccccc5)nc4c3)c3c(N)nccn32)C1 [Linsitinib] (partner 1 µM)
How it was run: (§1)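 Nuclei were stained with Hoechst during a one-step fixation (final 0.05% Triton X-100, 1% formaldehyde, 1 ug/ml Hoechst) carried out 5 days after dosing, then counted on 4× images. The cells, lung cancer lines in 1536-well plates, had been dosed by pin tool the day after seeding with one drug alone or a fixed anchor-drug dose plus five library-drug doses (not always all listed) in √10 steps. Relative viability is the nuclei count in treated wells divided by that in vehicle wells, and each value is the median of duplicate plates.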

[2] = compound: NCC(=O)Nc1ccc(-n2nc(C(F)(F)F)cc2-c2ccc3c(ccc4ccccc43)c2)cc1 + CCNC(=O)c1noc(-c2cc(C(C)C)c(O)cc2O)c1-c1ccc(CN2CCOCC2)cc1 [Luminespib] (partner 0.01 µM)
How it was run: as §1

[3] = compound: NCC(=O)Nc1ccc(-n2nc(C(F)(F)F)cc2-c2ccc3c(ccc4ccccc43)c2)cc1 + Cc1nc(Nc2ncc(C(=O)Nc3c(C)cccc3Cl)s2)cc(N2CCN(CCO)CC2)n1 [Dasatinib] (partner 0.075 µM)
How it was run: as §1

[4] = compound: C1CSC2=C(C(=O)N1)SC3=C2C=C(C=C3)O [kb NB 142-70] + CC(C)C[C@H](NC(=O)[C@H](Cc1ccccc1)NC(=O)c1cnccn1)B(O)O [Bortezomib] (partner 0.002 µM)
How it was run: as §1

EKVX
relative viability ([1]; first compound 0.02 µM): 1.04
relative viability ([1]; first compound 0.06325 µM): 1.06
relative viability ([1]; first compound 0.2 µM): 0.987
relative viability ([1]; first compound 0.6325 µM): 1.01
relative viability ([1]; first compound 2 µM): 1.11
relative viability ([2]; first compound 0.02 µM): 0.957
relative viability ([2]; first compound 0.06325 µM): 0.923
relative viability ([2]; first compound 0.2 µM): 0.894
relative viability ([2]; first compound 0.6325 µM): 0.842
relative viability ([2]; first compound 2 µM): 0.909
relative viability ([3]; first compound 0.02 µM): 0.554
relative viability ([3]; first compound 0.06325 µM): 0.6
relative viability ([3]; first compound 0.2 µM): 0.648
relative viability ([3]; first compound 0.6325 µM): 0.527
relative viability ([3]; first compound 2 µM): 0.488
relative viability ([4]; first compound 0.1 µM): 0.994
relative viability ([4]; first compound 1 µM): 1.05
relative viability ([4]; first compound 3.162 µM): 0.993

EMC-BAC-2
relative viability ([1]; first compound 0.02 µM): 0.86
relative viability ([1]; first compound 0.06325 µM): 0.848
relative viability ([1]; first compound 0.2 µM): 0.853
relative viability ([1]; first compound 0.6325 µM): 0.81
relative viability ([1]; first compound 2 µM): 0.821
relative viability ([2]; first compound 0.02 µM): 1.11
relative viability ([2]; first compound 0.06325 µM): 1.23
relative viability ([2]; first compound 0.2 µM): 1.18
relative viability ([2]; first compound 0.6325 µM): 1.17
relative viability ([2]; first compound 2 µM): 1.18
relative viability ([3]; first compound 0.02 µM): 0.316
relative viability ([3]; first compound 0.06325 µM): 0.286
relative viability ([3]; first compound 0.2 µM): 0.325
relative viability ([3]; first compound 0.6325 µM): 0.377
relative viability ([3]; first compound 2 µM): 0.338
relative viability ([4]; first compound 0.1 µM): 1.08
relative viability ([4]; first compound 1 µM): 1.07
relative viability ([4]; first compound 3.162 µM): 0.812

EPLC-272H
relative viability ([1]; first compound 0.02 µM): 1.38
relative viability ([1]; first compound 0.06325 µM): 1.06
relative viability ([1]; first compound 0.2 µM): 1.18
relative viability ([1]; first compound 0.6325 µM): 1.22
relative viability ([1]; first compound 2 µM): 1.18
relative viability ([2]; first compound 0.02 µM): 0.265
relative viability ([2]; first compound 0.06325 µM): 0.264
relative viability ([2]; first compound 0.2 µM): 0.367
relative viability ([2]; first compound 0.6325 µM): 0.186
relative viability ([2]; first compound 2 µM): 0.35
relative viability ([3]; first compound 0.02 µM): 0.35
relative viability ([3]; first compound 0.06325 µM): 0.406
relative viability ([3]; first compound 0.2 µM): 0.351
relative viability ([3]; first compound 0.6325 µM): 0.357
relative viability ([3]; first compound 2 µM): 0.671
relative viability ([4]; first compound 0.1 µM): 0.926
relative viability ([4]; first compound 1 µM): 1.06
relative viability ([4]; first compound 3.162 µM): 0.72

H3255
relative viability ([1]; first compound 0.02 µM): 0.916
relative viability ([1]; first compound 0.06325 µM): 0.945
relative viability ([1]; first compound 0.2 µM): 0.958
relative viability ([1]; first compound 0.6325 µM): 0.961
relative viability ([1]; first compound 2 µM): 0.919
relative viability ([2]; first compound 0.02 µM): 0.781
relative viability ([2]; first compound 0.06325 µM): 1.03
relative viability ([2]; first compound 0.2 µM): 0.9
relative viability ([2]; first compound 0.6325 µM): 0.777
relative viability ([2]; first compound 2 µM): 0.984
relative viability ([3]; first compound 0.02 µM): 0.477
relative viability ([3]; first compound 0.06325 µM): 0.343
relative viability ([3]; first compound 0.2 µM): 0.348
relative viability ([3]; first compound 0.6325 µM): 0.337
relative viability ([3]; first compound 2 µM): 0.347
relative viability ([4]; first compound 0.1 µM): 0.822
relative viability ([4]; first compound 1 µM): 0.7
relative viability ([4]; first compound 3.162 µM): 0.822

HARA
relative viability ([1]; first compound 0.02 µM): 0.935
relative viability ([1]; first compound 0.06325 µM): 1.01
relative viability ([1]; first compound 0.2 µM): 1.18
relative viability ([1]; first compound 0.6325 µM): 0.965
relative viability ([1]; first compound 2 µM): 0.935
relative viability ([2]; first compound 0.02 µM): 0.773
relative viability ([2]; first compound 0.06325 µM): 1.03
relative viability ([2]; first compound 0.2 µM): 0.735
relative viability ([2]; first compound 0.6325 µM): 0.484
relative viability ([2]; first compound 2 µM): 0.818
relative viability ([3]; first compound 0.02 µM): 0.227
relative viability ([3]; first compound 0.06325 µM): 0.241
relative viability ([3]; first compound 0.2 µM): 0.233
relative viability ([3]; first compound 0.6325 µM): 0.256
relative viability ([3]; first compound 2 µM): 0.296
relative viability ([4]; first compound 0.1 µM): 1.15
relative viability ([4]; first compound 1 µM): 1.06
relative viability ([4]; first compound 3.162 µM): 0.964

HCC-15
relative viability ([1]; first compound 0.02 µM): 0.865
relative viability ([1]; first compound 0.06325 µM): 0.871
relative viability ([1]; first compound 0.2 µM): 0.897
relative viability ([1]; first compound 0.6325 µM): 0.891
relative viability ([1]; first compound 2 µM): 0.944
relative viability ([2]; first compound 0.02 µM): 0.332
relative viability ([2]; first compound 0.06325 µM): 0.306
relative viability ([2]; first compound 0.2 µM): 0.302
relative viability ([2]; first compound 0.6325 µM): 0.365
relative viability ([2]; first compound 2 µM): 0.335
relative viability ([3]; first compound 0.02 µM): 0.619
relative viability ([3]; first compound 0.06325 µM): 0.709
relative viability ([3]; first compound 0.2 µM): 0.651
relative viability ([3]; first compound 0.6325 µM): 0.632
relative viability ([3]; first compound 2 µM): 0.673
relative viability ([4]; first compound 0.1 µM): 0.972
relative viability ([4]; first compound 1 µM): 1.1
relative viability ([4]; first compound 3.162 µM): 1.1

HCC-44
relative viability ([1]; first compound 0.02 µM): 0.648
relative viability ([1]; first compound 0.06325 µM): 0.688
relative viability ([1]; first compound 0.2 µM): 0.697
relative viability ([1]; first compound 0.6325 µM): 0.632
relative viability ([1]; first compound 2 µM): 0.652
relative viability ([2]; first compound 0.02 µM): 1.1
relative viability ([2]; first compound 0.06325 µM): 1.05
relative viability ([2]; first compound 0.2 µM): 1.06
relative viability ([2]; first compound 0.6325 µM): 1.03
relative viability ([2]; first compound 2 µM): 0.938
relative viability ([4]; first compound 0.1 µM): 0.952
relative viability ([4]; first compound 1 µM): 0.94
relative viability ([4]; first compound 3.162 µM): 0.899

HCC-78
relative viability ([1]; first compound 0.02 µM): 0.572
relative viability ([1]; first compound 0.06325 µM): 0.563
relative viability ([1]; first compound 0.2 µM): 0.498
relative viability ([1]; first compound 0.6325 µM): 0.49
relative viability ([1]; first compound 2 µM): 0.541
relative viability ([3]; first compound 0.02 µM): 0.466
relative viability ([3]; first compound 0.06325 µM): 0.432
relative viability ([3]; first compound 0.2 µM): 0.357
relative viability ([3]; first compound 0.6325 µM): 0.425
relative viability ([3]; first compound 2 µM): 0.429
relative viability ([4]; first compound 0.1 µM): 0.486
relative viability ([4]; first compound 1 µM): 0.543
relative viability ([4]; first compound 3.162 µM): 0.556

HCC-366
relative viability ([1]; first compound 0.02 µM): 0.784
relative viability ([1]; first compound 0.06325 µM): 0.645
relative viability ([1]; first compound 0.2 µM): 0.431
relative viability ([1]; first compound 0.6325 µM): 0.557
relative viability ([1]; first compound 2 µM): 0.675
relative viability ([3]; first compound 0.02 µM): 0.659
relative viability ([3]; first compound 0.06325 µM): 0.644
relative viability ([3]; first compound 0.2 µM): 0.615
relative viability ([3]; first compound 0.6325 µM): 0.621
relative viability ([3]; first compound 2 µM): 0.624
relative viability ([4]; first compound 0.1 µM): 1.07
relative viability ([4]; first compound 1 µM): 0.926
relative viability ([4]; first compound 3.162 µM): 1.12

HCC-827
relative viability ([1]; first compound 0.02 µM): 0.93
relative viability ([1]; first compound 0.06325 µM): 0.972
relative viability ([1]; first compound 0.2 µM): 1
relative viability ([1]; first compound 0.6325 µM): 0.956
relative viability ([1]; first compound 2 µM): 0.958
relative viability ([2]; first compound 0.02 µM): 0.679
relative viability ([2]; first compound 0.06325 µM): 0.852
relative viability ([2]; first compound 0.2 µM): 0.59
relative viability ([2]; first compound 0.6325 µM): 0.731
relative viability ([2]; first compound 2 µM): 0.684
relative viability ([3]; first compound 0.02 µM): 0.371
relative viability ([3]; first compound 0.06325 µM): 0.282
relative viability ([3]; first compound 0.2 µM): 0.336
relative viability ([3]; first compound 0.6325 µM): 0.329
relative viability ([3]; first compound 2 µM): 0.35
relative viability ([4]; first compound 0.1 µM): 1.09
relative viability ([4]; first compound 1 µM): 1.02
relative viability ([4]; first compound 3.162 µM): 0.978
